Measurements as given in US20250295618A1, “PARASYMPATHETIC NERVE ACTIVATION AGENT AND PARASYMPATHETIC NERVE ACTIVATION COMPOSITION” (MARUZEN PHARMACEUTICALS CO., LTD., priority 2022, published 2025).

How the values were obtained:
Format in all cases: in vivo, male Whistar rats
[1] = system: parasympathetic nerve (vagus nerve) innervating the stomach; assay: Test Example 1: neural activity of distal branches of vagus (parasympathetic) nerve for the stomach (GVNA) after intragastric administration; details: urethane-anesthetized rats; intragastric 0.015 mg/0.5 mL/300 g of body weight; measured for 60 minutes; percentage of value at 0 minutes (100%); FIG. 1
Method: (§1) The effect of the intragastric administration of the compound represented by Structural Formula (1) on the activity of the parasympathetic nerve innervating the stomach, the pancreas, or the intestine was tested in the following manner. For the experiment, male Whistar rats (approximately 9 weeks old) each having a body weight of approximately 300 g were kept in a 24° C. thermostatic animal room for 1 week or longer with a 12-hour light-dark cycle (lighting from 8:00 to 20:00). On the day of the experiment, the rats were fasted for 3 hours, followed by anesthetizing with urethane. A cannula for intragastric administration was inserted into each of the rats, and then distal branches of the parasympathetic nerve (vagus nerve) innervating the stomach, the pancreas, or the intestines (small intestine and large intestine) were lifted with a silver electrode, and the electrical activity thereof was measured. […] In addition, as a control, water serving as a solvent was intragastrically administered using the cannula at a dose of 0.5 mL/300 g of body weight, and the change in the neural activity of the distal branches of the above parasympathetic nerves was measured electrophysiologically for 60 minutes. […]

[2] = system: parasympathetic nerve (vagus nerve) innervating the intestines (small intestine and large intestine); assay: Test Example 1: neural activity of distal branches of vagus (parasympathetic) nerve for the intestine (IVNA) after intragastric administration; details: urethane-anesthetized rats, measured for 60 minutes, percentage of value at 0 minutes (100%), FIG. 3
Method: as §1

[3] = system: parasympathetic nerve (vagus nerve) innervating the pancreas; assay: Test Example 1: neural activity of distal branches of vagus (parasympathetic) nerve for the pancreas (PVNA) after intragastric administration; details: urethane-anesthetized rats, measured for 60 minutes, percentage of value at 0 minutes (100%), FIG. 2
Method: as §1

[4] = intragastric 0.00015 mg/0.5 mL/300 g of body weight
[5] = intragastric 0.0015 mg/0.5 mL/300 g of body weight

COc1cc(CCC(=O)O)ccc1O [3-(4-hydroxy-3-methoxyphenyl)propionic acid]
gastric vagal nerve activity (GVNA) value compared with the water group [1]: GVNA value higher than the GVNA value of the group to which water serving as the solvent was administered
intestinal vagal nerve activity (IVNA) value compared with the water group [2, 4]: IVNA values higher than the IVNA value of the group to which water serving as the solvent was administered
intestinal vagal nerve activity (IVNA) value compared with the water group [2, 5]: IVNA values higher than the IVNA value of the group to which water serving as the solvent was administered
pancreatic vagal nerve activity (PVNA) value compared with the water group [3, 4]: PVNA value higher than the PVNA value of the group to which water serving as the solvent was administered
pancreatic vagal nerve activity (PVNA) value compared with the water group [3, 5]: PVNA value higher than the PVNA value of the group to which water serving as the solvent was administered
